Laboratory results from patent US9226929B2, “Pharmaceutically active disubstituted triazine derivatives” (Bayer Intellectual Property GMBH, priority 2011, dated 2016).

Assays:
[1] = target: T1, CDK7/CyclinH/MAT1 (Homo sapiens, UniProt P50613); test: LanthaScreen Eu Kinase Binding Assay, CDK7; conditions: tracer 236, read-out: CDK7 (activity range), Kd
T1 construct: His; purchased Carna Biosciences
How it was run: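 TR-FRET displacement of an Alexa Fluor 647 active-site tracer, detected with a Eu anti-GST antibody, over an 8-point 1:3 compound series. Tracer was set at its Kd (30 nM for CDK2/Cyclin A, CDK7 and CDK9/Cyclin T1; 35 nM for CDK9/Cyclin K). Read after 1 h at room temperature; Kd was fitted from sigmoidal curves.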

[2] = target: T2, CDK2/CyclinA (Homo sapiens, UniProt P24941); test: Lance Ultra KinaSelect Assay, CDK2; format: biochemical; conditions: ATP 3 μM; read-out: CDK2 LANCE assay (activity range), IC50
T2 construct: GST; purchased Proqinase
Method: (§1) 2. Measurement of half maximal inhibitory concentration to CDKs This protocol describes how the Lance Ultra KinaSelect Assay was performed to determine half maximal inhibitory concentration (1050) of compounds of general formula (I) and CDK/Cyclin complexes. The principle behind this enzymatic assay is based upon the phosphorylation of the ULight-Peptide Substrat. It is detected by using a specific
(§2) EU-labeled anti-phospho peptide antibody. The binding of the Eu-labeled anti-phospho peptide antibody to the phosphorylated ULight labeled peptide gives rise to a FRET-signal. Binding of an inhibitor to the kinase prevents phosphorylation of the ULight-MBP Substrat, resulting in a loss of FRET.
(§3) The compounds of general formula (I) summarized in Table 5 were diluted from a 10 mM DMSO stock solution 1:10 in a total volume of 15 μL DMSO. This compound predilution was then serial diluted 1:3 over 8 steps in DMSO and briefly spun down. Each compound solution was now diluted 1:20 in Enzymatic Buffer (HEPES: 50 mM, pH: 7.5; MgCl2: 10 mM; EGTA: 1 mM; DTT: 2 mM; Tween-20: 0.01%), mixed thoroughly and spun down. For every sample, 2 μL of the diluted compound were mixed with 6 μL CDK/Cyclin/Substrat solution and 2 μL ATP solution in a well of a small volume 384 well plate (Corning Incorporated, Corning, N.Y., USA; order no. 3673). The CDK/Cyclin was diluted to the appropriate concentration (see Table 3) and the ATP concentration was adjusted to its […] for the CDK/Cyclin, which was 3 μM for CDK2/Cyclin A, 20 μM for CDK1/Cyclin B1, 25 μM for CDK7/Cyclin H and CDK9/Cyclin T1, 55 μM for CDK6/Cyclin D3, 90 μM for CDK4/Cyclin D1 and 125 μM for CDK9/Cyclin K. For negative controls, in each well 2 μL of DMSO solution (1% final DMSO assay concentration) was mixed with 6 μL substrate solution (50 nM ULight MBP final assay concentration) and 2 μL ATP solution (appropriate final concentration see Table 3). For positive controls, in each well 2 μL of DMSO solution (1% final DMSO assay concentration) was mixed with 6 μL CDK/Cyclin/Substrat (appropriate final concentration see Table 3) and 2 μL Tracer ATP solution (appropriate final concentration see Table 3). Positive and negative controls were calculated from at least 8 different sample wells. The 384 well plates were mixed in a Teleshaker plate mixer (Beckman Coulter, Brea, Calif., USA) at 2000 rpm for 40 sec, and incubated for 1 h at room temperature. Before reading, 10 μL the detection buffer (Lance Detection Buffer 1×; EDTA: […]; Eu-Anti-P-MBP: see Table 3) was added. The FRET signal was measured at 340 nm excitation, 665 nm and 615 nm emission (for the kinase tracer and LanthaScreen Eu-AB, respectively) with an Envision spectrophotometer (Perkin Elmer, Waltham, Mass., USA) with 50 μs delay and 300 μs integration time. IC50 values were determined from the sigmoidal dose response curves with the software Quattro Workflow (Quattro GmbH, Munich, Germany).

[3] = target: T3, CDK6/CyclinD3 (Homo sapiens, UniProt Q00534); test: Lance Ultra KinaSelect Assay, CDK6; format: biochemical; conditions: ATP 55 μM; read-out: CDK6 LANCE assay (activity range), IC50
T3 construct: purchased Carna
Method: as §1, §2, §3

T1 sequence (P50613 whole entry): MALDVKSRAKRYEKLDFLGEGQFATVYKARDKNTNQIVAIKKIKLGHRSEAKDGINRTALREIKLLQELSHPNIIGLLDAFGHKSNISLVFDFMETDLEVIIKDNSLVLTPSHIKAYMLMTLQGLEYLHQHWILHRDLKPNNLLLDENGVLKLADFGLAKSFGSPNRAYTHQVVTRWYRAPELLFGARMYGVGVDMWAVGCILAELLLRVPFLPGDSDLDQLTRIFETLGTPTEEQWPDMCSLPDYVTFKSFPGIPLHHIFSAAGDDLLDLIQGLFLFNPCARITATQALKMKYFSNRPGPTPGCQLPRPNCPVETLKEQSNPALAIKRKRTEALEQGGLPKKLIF
T1 sequence (P51946 whole entry partner): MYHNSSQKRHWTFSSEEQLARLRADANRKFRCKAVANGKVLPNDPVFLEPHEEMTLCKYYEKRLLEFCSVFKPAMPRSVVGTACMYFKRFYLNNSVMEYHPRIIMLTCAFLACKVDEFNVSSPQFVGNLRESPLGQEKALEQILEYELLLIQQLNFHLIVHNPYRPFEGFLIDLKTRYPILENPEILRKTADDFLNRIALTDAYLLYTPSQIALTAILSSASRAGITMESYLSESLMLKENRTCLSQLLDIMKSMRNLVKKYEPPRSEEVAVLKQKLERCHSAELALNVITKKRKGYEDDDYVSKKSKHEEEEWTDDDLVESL
T1 sequence (P51948 whole entry partner): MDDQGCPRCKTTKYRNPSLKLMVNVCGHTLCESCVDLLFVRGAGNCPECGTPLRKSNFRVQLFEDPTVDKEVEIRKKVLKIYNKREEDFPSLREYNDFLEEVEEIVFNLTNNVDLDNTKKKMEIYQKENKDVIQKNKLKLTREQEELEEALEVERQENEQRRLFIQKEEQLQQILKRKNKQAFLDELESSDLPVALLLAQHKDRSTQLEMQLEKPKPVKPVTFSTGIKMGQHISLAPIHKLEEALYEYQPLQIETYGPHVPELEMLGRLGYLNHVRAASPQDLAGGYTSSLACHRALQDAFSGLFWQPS
T3 sequence (Q00534 whole entry): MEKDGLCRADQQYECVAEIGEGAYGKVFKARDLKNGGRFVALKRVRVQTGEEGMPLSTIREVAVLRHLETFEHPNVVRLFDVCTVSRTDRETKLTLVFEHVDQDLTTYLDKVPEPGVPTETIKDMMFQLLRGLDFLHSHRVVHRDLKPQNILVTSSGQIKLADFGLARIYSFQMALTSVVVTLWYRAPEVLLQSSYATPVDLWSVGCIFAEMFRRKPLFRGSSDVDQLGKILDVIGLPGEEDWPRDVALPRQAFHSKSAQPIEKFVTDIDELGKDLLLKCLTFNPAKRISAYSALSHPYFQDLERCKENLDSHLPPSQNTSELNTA
T3 sequence (P30281 whole entry partner): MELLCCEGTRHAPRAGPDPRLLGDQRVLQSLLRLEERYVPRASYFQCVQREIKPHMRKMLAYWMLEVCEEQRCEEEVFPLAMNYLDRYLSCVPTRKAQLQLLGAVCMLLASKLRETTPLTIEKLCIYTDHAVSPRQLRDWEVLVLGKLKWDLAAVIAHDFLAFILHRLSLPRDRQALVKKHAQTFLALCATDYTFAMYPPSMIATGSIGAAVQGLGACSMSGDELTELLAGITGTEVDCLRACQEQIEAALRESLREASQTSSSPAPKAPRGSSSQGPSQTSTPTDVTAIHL

Row | Structure (SMILES) | Kd [1] [µM] | IC50 [2] [µM] | IC50 [3] [µM]
1 | NS(=O)(=O)Cc1cccc(Nc2ncnc(N3CCCC3c3ccccc3)n2)c1 (racemic) [Compound B33, rac-3-[(4-(2-Phenylpyrrolidin-1-yl)-1,3,5-triazin-2-yl)amino]-benzenemethanesulfonamide] | > 10 | > 10 | > 10
2 | NS(=O)(=O)Cc1cccc(Nc2ncnc(N3CCCCC3)n2)c1 [Compound B1, 3-[(4-(Piperidin-1-yl)-1,3,5-triazin-2-yl)amino]benzenemethane sulfonamide] | > 10 | > 10 | > 10
3 | COC[C@H]1CCCN1c1ncnc(Nc2cccc(CS(N)(=O)=O)c2)n1 [Compound B17, (R)-3-[(4-(2-(Methoxymethyl)pyrrolidin-1-yl)-1,3,5-triazin-2-yl)amino]benzenemethanesulfonamide] | > 10 | 1 to 10 | > 10
4 | COC(=O)[C@H]1CCCN1c1ncnc(Nc2cccc(CS(N)(=O)=O)c2)n1 [Compound B21, (R)-Methyl 1-[4-((3-(Sulfamoylmethyl)phenyl)amino)-1,3,5-triazin-2-yl]pyrrolidine-2-carboxylate] | > 10 | – | –
5 | NS(=O)(=O)Cc1cccc(Nc2ncnc(N3CCc4ncccc4C3)n2)c1 [Compound B38, 3-[(4-(7,8-Dihydro-1,6-naphthyridin-6(5H)-yl)-1,3,5-triazin-2-yl)amino]-benzenemethanesulfonamide] | 1 to 10 | 0.1 to 1 | > 10
6 | NS(=O)(=O)Cc1cccc(Nc2ncnc(N3CCc4nc[nH]c4C3)n2)c1 [Compound B44, 3-[(4-(6,7-Dihydro-3H-imidazo[4,5-c]pyridin-5(4H)-yl)-1,3,5-triazin-2-yl)amino]benzenemethanesulfonamide] | 1 to 10 | – | –
7 | NS(=O)(=O)Cc1cccc(Nc2ncnc(N3CCc4ncsc4C3)n2)c1 [Compound B45, 3-[(4-(6,7-Dihydrothiazolo[5,4-c]pyridin-5(4H)-yl)-1,3,5-triazin-2-yl)amino]benzenemethanesulfonamide] | 1 to 10 | < 0.1 | –
8 | NS(=O)(=O)Cc1cccc(Nc2ncnc(N3CCCn4nccc43)n2)c1 [Compound B47, 3-[(4-(6,7-Dihydropyrazolo[1,5-a]pyrimidin-4(5H)-yl)-1,3,5-triazin-2-yl)amino]benzenemethanesulfonamide] | 0.1 to 1 | < 0.1 | 1 to 10
9 | NS(=O)(=O)Cc1cccc(Nc2ncnc(N3Cc4cn[nH]c4C3)n2)c1 [Compound B51, 3-[(4-(Pyrrolo[3,4-c]pyrazol-5(1H,4H,6H)-yl)-1,3,5-triazin-2-yl)amino]-benzenemethanesulfonamide] | 1 to 10 | 0.1 to 1 | > 10
